Values quoted from earlier work, collected in patent publication US20220409351A1, “ORAL APPLIANCE FOR DELIVERY OF AN ANTIMICROBIAL COMPOSITION” (Emanate Biomedical, Inc., priority 2019, published 2022).

Columns and labels:
[1] = test system: oral pathogenic bacteria; settings: at 10 minutes
[2] = test system: oral pathogenic bacteria; settings: against oral pathogenic bacteria

MIC [2]: 0.0125 % w/v
Structure (SMILES): [H]/N=C(\N/C(=N/[H])NCCCCCCNC(=N)NC(=N)Nc1ccc(Cl)cc1)Nc1ccc(Cl)cc1 [Chlorhexidine, chlorhexidine]
MBC [1]: 0.5 % w/v
